One molecule from US8318812B2, “Therapeutic agents for the treatment of lymphoid malignancies” (The Ohio State University Research Foundation, priority 2006, dated 2012) can be followed below.

Test [1] relates to MEC, Ramos, Raji, 697 and RS4-11 B cell lines. The test can be described thus: Annexin V/PI viability by flow cytometry in B cell lines. The class given is cell-based, Human. Conditions: 0.6-10 uM FTY720; 24 and 48 hours. How it is done: Cells: Blood was obtained from patients with B-cell CLL with informed consent under a protocol approved by the hospital internal review board. All patients examined in this series had immunophenotypically defined CLL as outlined by the modified 96 National Cancer Institute criteria. B-CLL cells were isolated from freshly donated blood using ficoll density gradient centrifugation (Ficoll-Paque Plus, Amershan Biosciences, Piscataway, N.J.). Isolated mononuclear cells were incubated in RPMI 1640 media (Gibco/Invitrogen, Carlsbad, Calif.) supplemented with 10% heat-inactivated fetal bovine serum (FBS, Hyclone Laboratories, Logan, Utah), 2 mM L-glutamine (Invitrogen, Carlsbad, Calif.), and penicillin (100 U/mL)/streptomycin (100 μg/ml) [Sigma-Aldrich, St. Louis] at 37° C. in an atmosphere of 5% CO2. Freshly isolated B-CLL cells were used in all experiments described herein. […]
Analysis of cell viability and apoptosis: The cell viability was carried out by dual staining with Annexin V conjugated to flourescein-isothyocyanate (FITC) and Propidium iodide (PI) as described previously. Briefly, 1×10^6 cells were stained with Annexin V-FITC (BD Pharmingen) and Propidium iodide (BD Pharmingen) for 15 minutes in dark and analyzed by flow cytometry using a Beckman-Coulter EPICS XL cytometer (Beckman-Coulter, Miami, Fla.). […]
(In flow cytometry, cells or beads pass a laser one at a time.)

In test [2] the test system is CD19+ B cells from CLL patients. Type of test: cell-based. To be noted: 0-10 uM FTY720; 15 CLL patients. As for the experimental part: Cells: Blood was obtained from patients with B-cell CLL with informed consent under a protocol approved by the hospital internal review board. All patients examined in this series had immunophenotypically defined CLL as outlined by the modified 96 National Cancer Institute criteria. B-CLL cells were isolated from freshly donated blood using ficoll density gradient centrifugation (Ficoll-Paque Plus, Amershan Biosciences, Piscataway, N.J.). Isolated mononuclear cells were incubated in RPMI 1640 media (Gibco/Invitrogen, Carlsbad, Calif.) supplemented with 10% heat-inactivated fetal bovine serum (FBS, Hyclone Laboratories, Logan, Utah), 2 mM L-glutamine (Invitrogen, Carlsbad, Calif.), and penicillin (100 U/mL)/streptomycin (100 μg/ml) [Sigma-Aldrich, St. Louis] at 37° C. in an atmosphere of 5% CO2. Freshly isolated B-CLL cells were used in all experiments described herein. Enriched B-lymphocyte fractions were prepared by using MACS negative selection kit by Miltenyi Biotech (Auburn, Calif.) or by “Rosette-Sep” kit from Stem Cell Technologies (Vancouver, British Columbia, Canada) according to the manufacturer's instructions. Human B-lymphocyte cell lines Raji and Ramos were obtained from ATCC (Manassas, Va.) and the MEC cells were obtained from German cell line bank (Braunschweig, Germany). The 697-neo and 697-Bcl-2 cell lines were kind gift from Dr. John Reed (Burnham Institute, La Jolla, Calif.). Cells were cultured at 37° C. in an atmosphere of 5% CO2 in RPMI 1640 media (Gibco/Invitrogen, Carlsbad, Calif.) supplemented with 10% fetal bovine serum (Gibco/Invitrogen).
Analysis of cell viability and apoptosis: The cell viability was carried out by dual staining with Annexin V conjugated to flourescein-isothyocyanate (FITC) and Propidium iodide (PI) as described previously. Briefly, 1×10^6 cells were stained with Annexin V-FITC (BD Pharmingen) and Propidium iodide (BD Pharmingen) for 15 minutes in dark and analyzed by flow cytometry using a Beckman-Coulter EPICS XL cytometer (Beckman-Coulter, Miami, Fla.). Apoptotic cells were identified as Annexin V and/or PI positive cells. Cells excluding both FITC and PI were considered to be viable. The Annexin V^−/PI^− cells are represented as % live cells normalized to untreated controls.
B-CLL cells are reported to be resistant to apoptosis in-vivo. To systematically analyze the effects of FTY720 on B-CLL cells, purified CD19^+ cells from B-CLL patients were incubated with increasing concentrations of FTY720 ranging from 0, 0.5, 1, 1.5, 2.5, 5 or 10 uM. The cytotoxic effects were independently determined by flow cytometry using propidium iodide (PI) and Annexin V conjugated FITC reagents. Populations excluding both PI and Annexin V-FITC staining were considered viable. […]

Test [3] concerns Cyclin D1. The test can be described thus: Western blot of Cyclin D1 in primary MCL cells. Type of test: cell-based, Human. As for the experimental part:
(§1) Primary MCL cells were isolated from PBMC (with informed patient consent under a protocol approved by IRB) as described before. All the MCL patients were identified as outlined by the World Health Organization (WHO) classification. Human mantle cell lymphoma patient cell lines (Mino and Jeko) were obtained from Dr. Raymond Lai. Primary cells or MCL cell lines were incubated in RPMI 1640 media, supplemented with 10%-20% heat-inactivated fetal bovine serum, 2 mM L-glutamine and penicillin (100 U/mL)/streptomycin ([…]) at 37° C. in an atmosphere of 5% CO2. FTY720 was synthesized as previously described. Toxicity was determined by flow cytometry using Annexin-V-FITC and Propidium Iodide (PI) staining. Apoptotic cells were identified as Annexin-V+ and/or PI+ cells. Cells excluding both FITC and PI were considered viable. Western Blotting was performed as described previously using indicated antibodies. […]
(§2) FTY720 induced apoptosis is associated with down-modulation of Cyclin D1 and Akt. […] To determine if the FTY720 induced apoptosis is mediated through modulation of these targets relevant to the pathogenesis of the disease, we evaluated the effect of FTY720 on levels of Cyclin D1, p-Akt and Akt proteins by Wester Blotting analysis using specific antibodies in primary MCL cells and cell lines. […]
(In general: In western blotting, separated proteins are transferred to a membrane and probed.)

Test [4] concerns Cyclin D1. Briefly: Western blot of Cyclin D1 in Mino cell line. The class given is cell-based, Human. As for the experimental part: as §1, §2

In the case of `CCCCCCCCc1ccc(CCC(N)(CO)CO)cc1.Cl` [FTY720, 2-Amino-2-[2-(4-octylphenyl)ethyl]propane 1,3-diol hydrochloride], in test [1], the “viable cells (Annexin V-/PI-)” value is given as “dose dependent inhibition of viable cells”. Besides, the “viability of CD19+ B cells from CLL patients” value in test [2] is “dose and time dependent decrease in viability”. Besides, the figures for the “down-regulation of Cyclin D1 protein” value with Cyclin D1 [3] (8 hrs post treatment) and in the test on Cyclin D1 [3] (24 hrs) were 35% and 70%, respectively. Also, the “reduction in Cyclin D1” value in the test on Cyclin D1 [4] is recorded as “pronounced inhibition seen as early as 24 hrs”.
